Measured values as given in patent US20250295658A1, “ANTIPARASITIC AGENTS AND METHODS” (Whitehead Institute for Biomedical Research, priority 2022, published 2025).

Key:
Toxoplasma gondii [1] = assay: Plaque assays with DAHP and BH4; format: cell-based; settings: FIG. 1F
Experimental: Plaque Assays with DAHP and BH4
RHAku80 were maintained for at least two passages in DMEM and HPLM prior to beginning the plaque assay. Confluent human fibroblasts were maintained in 6-well plates in either DMEM or HPLM for at least 24 h prior to the start of the assay. To begin the experiment, parasites maintained in DMEM and HPLM were syringe released and filtered through a […]. Parasites were then counted and diluted such that each well received 500 parasites. Wells were then treated with the indicated concentrations of DAHP or PBS vehicle. For the BH4 rescue experiments, wells received 50 μM BH4 or the equivalent volume of DMSO vehicle. Plaques were allowed to grow for 6 days prior to fixation. For fixation, wells were first washed with PBS, then fixed for 10 min at room temperature with 100% ethanol. Wells were then stained for 10 min with crystal violet (12.5 g crystal violet, 125 ml 100% ethanol, 500 ml 1% ammonium oxalate). Wells were then washed three times with water and allowed to dry overnight.

Toxoplasma gondii [2] = assay: Pyrimethamine/DAHP drug synergy lytic assays; format: cell-based; settings: pyrimethamine in combination with 2.5 mM DAHP; FIGS. 1G-H
Experimental: Pyrimethamine/DAHP Drug Synergy Lytic Assays
96 well plates were utilized to generate 8-point dosage curves of parasites grown in various concentrations of pyrimethamine with and without 2.5 mM DAHP. At the start of the assay, prior to parasite harvest, 96 well plates containing confluent fibroblasts were set up with 1.33× the desired final drug concentrations in 150 μl of volume. This ensured that the addition of 50 μl of parasites would result in the desired 1× drug concentration of both pyrimethamine and DAHP. Wells designated as containing less than the maximum dosage of either drug (10 μg/ml pyrimethamine and 2.5 mM DAHP) received the equivalent volume of vehicle (ethanol for pyrimethamine, PBS for DAHP). Parasites were then force-lysed, filtered, and resuspended to a concentration of 5e5 parasites/ml. 50 μl of parasites were then added to each well, resulting in an infection of 2.5e4 parasites per well. Plates were then spun at 290 g for 5 min. Plates were then incubated for 3 days to allow for parasite plaquing. Plates were then washed with PBS followed by staining with crystal violet as conducted for plaque assays. Well staining was then quantified by plate reader at the 570 nm wavelength. […] Drug curves were then generated and IC50 values were calculated from biological triplicate experiments in GraphPad Prism 9.

NF54 P. falciparum = assay: SYBR Green I-based dose-response assay in Plasmodium falciparum; format: cell-based; settings: atovaquone with 1 mM DAHP, FIGS. 2C-D
Experimental: The NF54 P. falciparum line was cultured and synchronized as described previously.^28,29 Cultures were kept at 37° C. in RPMI-1640 medium supplemented with 25 mM HEPES, 100 μM hypoxanthine, 0.5% Albumax II, 24 mM sodium bicarbonate, 25 μg/mL gentamicin (Life Technologies, Carlsbad, CA 11021-045) and gassed with 5% CO2, 1% O2, and 94% N2 mixture. Dose-Response Assay in Plasmodium falciparum A SYBR Green I-based assay was used to measure in vitro P. falciparum drug susceptibility.^30,31 Ring-stage NF54 parasites were seeded at 1% hematocrit and 1% starting parasitemia in 384-well black clear-bottom plates containing test compounds (stocks of 10 mM pyrimethamine, 0.1 mM atovaquone, and 10 mM DHA in DMSO) plated in triplicate in 12-point serial dilutions for 72 h. […] Lysis buffer (0.16% w/v saponin, 1.6% Triton X-100, 5 mM EDTA, and 20 mM Tris-HCl, pH 7.4) with a 1:1000 dilution of SYBR Green I fluorescent dye (Invitrogen) was added for at least 12 h, and fluorescence readings were taken (excitation at 494 nm, emission at 530 nm) using a SpectraMax M5 (Molecular Devices, Sunnyvale, CA) plate reader. IC50 values were calculated using a nonlinear regression curve fit in Graphpad Prism 9 in biological triplicate.

[3] = test system: C57BL/6J mouse embryonic fibroblasts; assay: Proliferation of mouse embryonic fibroblasts in DAHP treatment; format: cell-based; settings: 5 mM DAHP, 48 hours; FIG. 2E
Experimental: Proliferation of Mouse Embryonic Fibroblasts in DAHP Treatment Twenty-thousand immortalized C57BL/6J mouse embryonic fibroblasts were plated in a well of a 6-well plate and treated with 5 mM DAHP or PBS vehicle. The cells were allowed to grow for 48 hours, then trypsinized and counted. Population doublings were calculated as follows: [formula] [formula]

[4] = cited from earlier work
[5] = test system: DD-BFD2, CST10-fLuc, pSAG1-nLuc reporter strain; assay: Firefly and nano-luciferase assays of the DD-BFD2, CST10-fLuc, pSAG1-nLuc reporter strain; format: cell-based, Toxoplasma; settings: 3 μM shield-1
Text: This strain is able to recapitulate the biology of both the acute tachyzoite stage as well as the chronic bradyzoite stage. Differentiation from the tachyzoite to bradyzoite stage is mediated through the expression of Bradyzoite Formation Deficient 2 (BFD2) tagged with a degradation domain. Under standard conditions, the degradation domain ensures BFD2 is degraded from parasites, maintaining them in the tachyzoite stage. Upon the addition of the small-molecule shield-1, BFD2 is stabilized and causes differentiation of parasites to the bradyzoite stage.^34 The engineered parasite strain allows the use of a dual-luciferase system to report on differentiation status and general parasite viability. Expression of firefly luciferase is driven by fusion via t2a peptide to the bradyzoite marker CST10, whereas expression of nano-luciferase is driven by the tachyzoite promoter SAG1. Addition of shield-1 is able to simultaneously increase the CST10 bradyzoite marker while decreasing the SAGI tachyzoite marker (FIGS. 2G-H). […] This enables examination of the chronic parasite state with minimal interference on the endogenous circuity. Chemical screens of this engineered strain can therefore identify compounds that bias parasite state either to the tachyzoite or bradyzoite stage, as well as compounds capable of killing both stages simultaneously. […]

Compound | effect on parasite viability (plaque assay) (Toxoplasma gondii [1]; 2.5 mM DAHP) | parasite lytic cycle (plaque assay) (Toxoplasma gondii [1]; 5 mM DAHP) | antiparasitic effect of DAHP with exogenous BH4 (Toxoplasma gondii [1]; exogenous BH4 (50 μM)) | reduction in the pyrimethamine IC50 value (Toxoplasma gondii [2]) | potentiating effect in combination with atovaquone (NF54 P. falciparum) | growth of a proliferative mouse fibroblast cell line (population doublings) [3] | solubility [4] | CST10 bradyzoite marker (firefly luciferase reporter) ([5]; FIG. 2G) | SAG1 tachyzoite marker (nano-luciferase reporter) ([5]; FIG. 2H)
Nc1cc(O)nc(N)n1 [DAHP, 2,4-diamino-6-hydroxypyrimidine] | no apparent effect | able to block the parasite lytic cycle | rescued | 70% | no potentiating effect | no effect | poor | – | –
CC[C@H](C(=O)N1CCCC[C@H]1C(=O)O[C@H](CCc1ccc(OC)c(OC)c1)c1cccc(OCCN2CCOCC2)c1)c1cc(OC)c(OC)c(OC)c1 [shield-1] | – | – | – | – | – | – | – | increase | decreasing
